Among the data in PMC11876601 (Molecular Systems Biology, 2025) are Kd, EC50 and pKDapp values, retold here.

One test has as its target GSK3A ; P49840 (Homo sapiens, UniProt P49840). In words: biochemical. Also noted: species or system AsPC-1; Kinobeads competition pulldown in AsPC-1 lysate with LC-MS/MS label-free quantification; apparent Kd. As to the method: (§1) This was followed by incubation with Kinobeads ε (17.5 µl of settled beads) for 30 min at 4 °C to enrich kinases. […] Enriched proteins were reduced with 50 mM DTT in 8 M urea, 40 mM Tris-HCl, pH 7.4 for 30 min at room temperature, and alkylated with 55 mM chloroacetamide. After reducing the urea concentration to 1–2 M, proteins were digested with trypsin at 37 °C for 16 h. Subsequently, eluted peptides were desalted using SepPak tC18 µElution plates (Waters), freeze-dried by vacuum centrifugation, and stored at −20 °C. Proteins were filtered by potential contaminants, reversed hits and proteins identified only by site. Residual binding of proteins was calculated from LFQ intensities as the ratio between drug doses and vehicle. […] Only kinases quantified with at least 4 unique peptides in the vehicle experiment were considered. Potential targets were further curated through manual inspection of dose-dependent reduction in MS/MS and unique peptide counts.

The target in a further test is MAP3K1 ; Q13233 (Homo sapiens, UniProt Q13233). In words: biochemical. More on the design: species or system AsPC-1; Kinobeads competition pulldown in AsPC-1 lysate with LC-MS/MS label-free quantification; apparent Kd. As to the method:
as §1

The subject of the next test is FER. Conditions: cited from earlier work.
Another test concerns SIK2. Conditions: cited from earlier work.
The subject of the next test is ULK3. Conditions: cited from earlier work.
In the next test the test system is MARK4. Conditions: cited from earlier work.
In a further test the test system is PRKD2. Conditions: cited from earlier work.
The next test deals with MAP4K1. The note with it: cited from earlier work.
The test system of another test is PKN2. The note with it: cited from earlier work.
The next test deals with AsPC-1. In words: cells. Also noted: ATPlite luminescence viability of PDAC cell lines, 11-dose single-agent curves, 4-parameter fit. Conditions: Homo sapiens, ASPC1, 72 h, read-out: EC50 [nM]. In a few lines: (§2)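 cells (1000 to 5000 per well) seeded 24 h before drug addition in a combination screen at 0.2% final DMSO. Controls were drug-free wells (negative) and 5 µM staurosporine (positive).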

A further test relates to BxPC-3. In words: cells. Also noted: ATPlite luminescence viability of PDAC cell lines, 11-dose single-agent curves, 4-parameter fit. Conditions: Homo sapiens, BXPC-3, 72 h, read-out: EC50 [nM]. In outline:
as §2

The subject of another test is PaTu-8988-T. In words: cells. The note with it: Homo sapiens, PaTu 8988t, 72 h, read-out: EC50 [nM]. Also noted: ATPlite luminescence viability of PDAC cell lines, 11-dose single-agent curves, 4-parameter fit. In outline: as §2
Where [1] appears, read: SIK2, 5 cell line mix lysate, Kinobeads ε, ref Reinecke et al. (2023).
Where [2] appears, read: ULK3, 5 cell line mix lysate, Kinobeads ε, ref Reinecke et al. (2023).
[3] abbreviates: MARK4, 5 cell line mix lysate, Kinobeads ε, ref Reinecke et al. (2023).
Setting [4] is: PRKD2, 5 cell line mix lysate, Kinobeads ε, ref Reinecke et al. (2023).
The mark [5] stands for this setting: MAP4K1, 5 cell line mix lysate, Kinobeads ε, ref Reinecke et al. (2023).
[6] abbreviates: PKN2, 5 cell line mix lysate, Kinobeads ε, ref Reinecke et al. (2023).

Read-outs that look alike come from different tables or passages of the source. Some results are limits rather than exact numbers.

Chain of MAP3K1 ; Q13233 (Q13233 whole entry): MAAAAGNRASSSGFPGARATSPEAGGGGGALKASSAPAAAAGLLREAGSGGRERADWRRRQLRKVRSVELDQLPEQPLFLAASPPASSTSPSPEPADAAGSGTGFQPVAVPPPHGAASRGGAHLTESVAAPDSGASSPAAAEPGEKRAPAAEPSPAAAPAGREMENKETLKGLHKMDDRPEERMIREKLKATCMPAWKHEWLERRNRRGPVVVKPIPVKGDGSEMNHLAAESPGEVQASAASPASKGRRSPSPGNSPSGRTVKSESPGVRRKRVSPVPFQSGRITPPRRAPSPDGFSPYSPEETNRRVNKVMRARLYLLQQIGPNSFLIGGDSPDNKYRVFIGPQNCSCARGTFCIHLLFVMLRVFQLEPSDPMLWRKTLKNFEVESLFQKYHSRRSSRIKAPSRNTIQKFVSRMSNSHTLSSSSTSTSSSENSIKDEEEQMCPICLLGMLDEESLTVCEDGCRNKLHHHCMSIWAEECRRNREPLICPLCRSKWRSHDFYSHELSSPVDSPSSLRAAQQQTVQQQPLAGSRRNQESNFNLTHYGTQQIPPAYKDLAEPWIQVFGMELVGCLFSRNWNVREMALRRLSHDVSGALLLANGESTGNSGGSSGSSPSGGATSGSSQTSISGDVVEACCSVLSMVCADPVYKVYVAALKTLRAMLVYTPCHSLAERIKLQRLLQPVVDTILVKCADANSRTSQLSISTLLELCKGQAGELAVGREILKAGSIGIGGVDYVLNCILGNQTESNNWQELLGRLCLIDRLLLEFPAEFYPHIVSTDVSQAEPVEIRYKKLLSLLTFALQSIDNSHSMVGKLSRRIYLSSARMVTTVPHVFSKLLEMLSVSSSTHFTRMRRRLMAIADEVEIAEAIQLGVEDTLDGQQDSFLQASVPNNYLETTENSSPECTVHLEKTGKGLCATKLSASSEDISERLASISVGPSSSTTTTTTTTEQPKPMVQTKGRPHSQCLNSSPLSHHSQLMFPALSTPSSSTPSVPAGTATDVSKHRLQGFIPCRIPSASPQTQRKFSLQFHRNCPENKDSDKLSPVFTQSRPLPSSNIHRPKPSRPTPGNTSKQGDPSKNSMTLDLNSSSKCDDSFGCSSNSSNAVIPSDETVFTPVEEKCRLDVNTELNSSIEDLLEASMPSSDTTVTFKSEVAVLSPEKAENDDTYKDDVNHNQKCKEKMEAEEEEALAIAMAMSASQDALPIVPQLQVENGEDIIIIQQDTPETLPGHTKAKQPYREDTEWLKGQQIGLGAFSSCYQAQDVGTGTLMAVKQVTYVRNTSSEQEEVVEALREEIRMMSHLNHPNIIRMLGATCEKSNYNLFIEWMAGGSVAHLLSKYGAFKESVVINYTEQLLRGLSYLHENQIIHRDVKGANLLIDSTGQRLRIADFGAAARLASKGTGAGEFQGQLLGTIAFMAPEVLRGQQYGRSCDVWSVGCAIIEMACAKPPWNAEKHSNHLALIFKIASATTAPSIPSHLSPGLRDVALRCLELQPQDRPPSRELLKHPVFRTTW
Chain of GSK3A ; P49840 (P49840 whole entry): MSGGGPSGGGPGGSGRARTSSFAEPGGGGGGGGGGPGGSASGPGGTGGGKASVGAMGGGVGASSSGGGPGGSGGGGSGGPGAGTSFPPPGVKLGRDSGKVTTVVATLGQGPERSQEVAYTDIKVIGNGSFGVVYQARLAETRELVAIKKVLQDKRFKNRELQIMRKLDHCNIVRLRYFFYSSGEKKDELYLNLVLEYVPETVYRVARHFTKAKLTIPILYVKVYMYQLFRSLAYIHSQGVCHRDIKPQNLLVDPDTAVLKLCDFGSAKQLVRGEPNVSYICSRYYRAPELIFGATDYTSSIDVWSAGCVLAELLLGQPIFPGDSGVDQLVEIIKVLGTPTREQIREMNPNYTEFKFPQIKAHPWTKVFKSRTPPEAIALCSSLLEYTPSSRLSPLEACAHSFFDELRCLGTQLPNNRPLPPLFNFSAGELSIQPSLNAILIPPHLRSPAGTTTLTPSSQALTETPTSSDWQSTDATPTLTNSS

Turning to `CNCc1ccc(-c2cc(-c3nc(-c4ccc(S(=O)(=O)C(C)C)cc4)cnc3N)on2)cc1` [Berzosertib], the Kd stood at 39.7 nM on GSK3A ; P49840 and 11.6 nM at MAP3K1 ; Q13233.

In the case of `COc1cc(N2CCC(N3CCN(C)CC3)CC2)ccc1Nc1ncc(Cl)c(Nc2ccccc2P(C)(C)=O)n1` [Brigatinib], the EC50 in the test with FER (5 cell line mix lysate, Kinobeads ε, ref Reinecke et al. (2023)) is […]; in the test on SIK2 (setting [1]), 46.5 nM; in the test on ULK3 (setting [2]), 306 nM; in the test with MARK4 (setting [3]) it was 232 nM; in the test on PRKD2 (setting [4]) it was 361 nM; in the test with MAP4K1 (setting [5]) it was 716 nM. In addition, the concentration giving a half-maximal response (EC50) with PKN2 (setting [6]) is 1040 nM; in the test on AsPC-1, 272 nM. Besides, the pKDapp at SIK2 (setting [1]) is reported as 7.62; on ULK3 (setting [2]) it was 6.86; on MARK4 (setting [3]), 6.71; on PRKD2 (setting [4]) it was 6.62; on MAP4K1 (setting [5]), 6.28; on PKN2 (setting [6]) it was 6.07. Also, the Kd at SIK2 (SIK2, 5 cell line mix lysate, Kinobeads ε, ref Reinecke et al. (2023), read-out: KDapp) is 24.1 nM; at ULK3 (ULK3, 5 cell line mix lysate, Kinobeads ε, ref Reinecke et al. (2023), read-out: KDapp), 139 nM; at MARK4 (MARK4, 5 cell line mix lysate, Kinobeads ε, ref Reinecke et al. (2023), read-out: KDapp) it was 193 nM; on PRKD2 (PRKD2, 5 cell line mix lysate, Kinobeads ε, ref Reinecke et al. (2023), read-out: KDapp), 238 nM; at MAP4K1 (MAP4K1, 5 cell line mix lysate, Kinobeads ε, ref Reinecke et al. (2023), read-out: KDapp), 520 nM; on PKN2 (PKN2, 5 cell line mix lysate, Kinobeads ε, ref Reinecke et al. (2023), read-out: KDapp) it was 852 nM.

Regarding `C[C@]12O[C@H](C[C@]1(O)CO)n1c3ccccc3c3c4c(c5c6ccccc6n2c5c31)CNC4=O` [Lestaurtinib], the half-maximal effective concentration (EC50) in the test with FER (4 cell line mix lysate, Kinobeads y, ref Klaeger et al. (2017)) is […]; in the test on SIK2 (SIK2, 4 cell line mix lysate, Kinobeads y, ref Klaeger et al. (2017)) it was […]; in the test on ULK3 (ULK3, 4 cell line mix lysate, Kinobeads y, ref Klaeger et al. (2017)) it was […]; in the test on MARK4 (MARK4, 4 cell line mix lysate, Kinobeads y, ref Klaeger et al. (2017)), […]; in the test with PRKD2 (PRKD2, 4 cell line mix lysate, Kinobeads y, ref Klaeger et al. (2017)), […]; with MAP4K1 (MAP4K1, 4 cell line mix lysate, Kinobeads y, ref Klaeger et al. (2017)), 347 nM. The EC50 is […] in the test with PKN2 (PKN2, 4 cell line mix lysate, Kinobeads y, ref Klaeger et al. (2017)); 432 nM in the test on BxPC-3; 407 nM in the test with PaTu-8988-T.

Turning to `Nc1nn2cc(F)cnc2c1C(=O)Nc1cncc(F)c1N1CCC(C(=O)N2CCN(C3COC3)CC2)CC1` [Gartisertib], the Kd at GSK3A ; P49840 is 0.719 nM; at MAP3K1 ; Q13233, 422 nM.

For the compound `CCN1CCN(Cc2ccc(Nc3ncc(F)c(-c4cc(F)c5nc(C)n(C(C)C)c5c4)n3)nc2)CC1` [Abemaciclib], the EC50 with AsPC-1 was greater than 10000 nM; in the test with BxPC-3, 337 nM; in the test on PaTu-8988-T it was 2850 nM.
